Source: patent US8809343B2, “Pyrimidine derivative, preparation method and use thereof” (Fudan University, priority 2008, dated 2014)
Like-named read-outs stand apart in the source and are kept apart here.

Experiments:
HIV-1 IIIB strain = assay: Anti-HIV activity: protection of HIV-infected MT-4 cells from virus-induced cell lesions; format: cell-based
Experimental: (§1) Anti-virus activity of cells in vitro was determined by Rega Institute for Medical of […] Katholleke University, consisting mainly: inhibitory activity towards HIV-infected MT-4 cells and cell toxicity. The method is described below: exert the compound on the HIV-infected ME-4 cells, and determine the protection of the drug on the cell lesions induced by HIV at varied HIV-infection intervals, calculate the half effective concentration IC50, the required concentration that protect 50% of cells from cell lesions induced by HIV. Toxicity determination is carried out in parallel with anti-HIV activity experiments, also in the cultured MT-4 cells, determine the CC50, the concentration that leads 50% of uninfected cells to cell lesions, and calculate the selectivity index SI=CC50/IC50 with the MTT method.
(§2) Anti-HIV activity of various compounds is monitored by the inhibitory efficiency of drugs on the cell lesions induced by HIV. Carry out cell culture with MT-4 cells. The adopted virus strains are HIV-1 IIIB strain and drug-resistant viral strain of […].
(§3) The detailed operation is as follows: the compound is dissolved with DMSO or water and diluted with phosphate buffer saline, 3×10^5 MT-4 cells are cultured with 100 μL various concentrations of compounds for 1 h, then 100 μL suitable virus dilution is added to the compound, and the cells are cultured at 37° C. for 1 h. After being washed for 3 times, the cells are suspended again in the culture media containing or not compounds individually. Subsequently, the cells are transferred to the atmosphere containing 5% CO2 and cultured for 7 days at 37° C., and culture media containing or not compounds are used to replace or supplement the culture solution on the third day after infection. Kinds of culture conditions should be duplicated. The cell lesions caused by virus are monitored with reverse light microscopy everyday. Typically, the virus dilution applied in the present experiments generally cause cell lesion on the fifth day after infection. […] It should be emphasized that, when the compound is poorly water-soluble and can only be dissolved in DMSO, the ratio of DMSO to water is generally below 10% (the final concentration of DMSO in MT-4 cell culture media is smaller than 2%). Because DMSO can influence the anti-virus activity of the tested compounds, blank tests on the solution containing the same concentration of DMSO should be conducted in parallel. Additionally, the final concentration of DMSO is far below the concentration required to influence the replication of HIV-1 in T cells.

MT-4 cells = assay: Cell toxicity in uninfected MT-4 cells (MTT method); format: cell-based
Experimental: as §1, §3

[1] = system: drug-resistant viral strain of L103N+Y181C; assay: Anti-HIV activity in MT-4 cells, drug-resistant viral strain; format: cell-based, HIV-1; settings: MT-4 cells, Table 1; read-out: EC50 103N + 181C
Experimental: as §1, §2, §3

[2] = Cell toxicity in uninfected MT-4 cells (MTT method); format: cell-based; settings: human
Experimental: as §1, §3

[3] = MT-4 cells, Table 3, read-out: EC50 HIV-1(IIIB)
[4] = MT-4 cells, Table 1, read-out: EC50 HIV-1(IIIB)
[5] = HIV-1 IIIB, MT-4 cells, Table 3
[6] = Human immunodeficiency virus 1, IIIB, MT4, read-out: EC50 HIV-1(IIIB)
[7] = Human immunodeficiency virus 1, IIIB, MT4, MT-4 cells, Table 1, read-out: EC50 HIV-1(IIIB)
[8] = Human immunodeficiency virus 1, IIIB, MT4, MT-4 cells, Table 2, read-out: EC50 WT(IIIB)

Compound	EC50 (HIV-1 IIIB strain; [3])	CC50 (MT-4 cells; Table 3)	EC50 (HIV-1 IIIB strain; [4])	CC50 (MT-4 cells; Table 1)	other results
CCOc1cc(C#N)cc(OCC)c1Oc1nc(Nc2ccc(C#N)cc2)nc2ccccc12 [Compound 46]	0.0029 µM	> 99.3 µM			
Cc1cc(C)c(Oc2nc(Nc3ccc(C#N)cc3)nc3ccccc23)c(C)c1 [Compound 36]	0.023 µM	> 34.1 µM			
CCOc1cc(C#N)cc(OC)c1Oc1nc(Nc2ccc(C#N)cc2)nc2ccccc12 [Compound 52]	0.0026 µM	> 130 µM			
N#Cc1ccc(Nc2nccc(Oc3ccc4cc(Br)ccc4c3Br)n2)cc1 [Compound 13]			0.0046 µM	51.1 µM	EC50 [1]: > 50.4 µM
CCCOc1cc(C#N)cc(OCC)c1Oc1nc(Nc2ccc(C#N)cc2)nc2ccccc12 [Compound 47]	0.0032 µM	> 66.7 µM			
Cc1cc(C#N)cc(C)c1Oc1nc(Nc2ccc(C#N)cc2)nc2ccccc12 [Compound 45]	0.0036 µM	> 172 µM			
CNc1nc(Nc2ccc(C#N)cc2)nc(Oc2ccc3ccccc3c2Br)c1C [Compound 17]			0.0154 µM	177 µM	EC50 [1]: 6.15 µM
N#Cc1ccc(Nc2nccc(Oc3ccc4cc(C#N)ccc4c3Br)n2)cc1 [Compound 15]			0.0016 µM	290 µM	EC50 [1]: 0.24 µM
CC(C)c1c(Cl)nc(Nc2ccc(C#N)cc2)nc1Oc1ccc2cc(C#N)ccc2c1 [Compound 9]			0.05 µM	436 µM	EC50 [1]: 3.36 µM
Cc1cc(C)c(Oc2nc(Nc3ccc(C#N)cc3)nc3ccc(Cl)cc23)c(C)c1 [Compound 54]	0.0018 µM	147 µM			
Cc1cccc(Oc2nc(Nc3ccc(C#N)cc3)nc3ccccc23)c1 [Compound 27]					SI (Selectivity index, the ratio of CC50/IC50) (HIV-1 IIIB strain; [5]): >563; EC50 (HIV-1 IIIB strain; [6]): 0.625 µM; CC50 at 7 days ([2]; uninfected MT-4 cells, Table 3): > 352 µM
N#Cc1ccc(Nc2nccc(Oc3ccc4cc(C#N)ccc4c3)n2)cc1 [Compound 14]			0.0033 µM	67.8 µM	EC50 [1]: 6.3 µM
N#Cc1ccc(Nc2nc(Oc3ccc(Br)cc3)c3ccccc3n2)cc1 [Compound 26]					SI (Selectivity index, the ratio of CC50/IC50) (HIV-1 IIIB strain; [5]): 894; EC50 (HIV-1 IIIB strain; [6]): 0.263 µM; CC50 at 7 days ([2]; uninfected MT-4 cells, Table 3): 235 µM
COc1cc(C#N)cc(OC)c1Oc1nc(Nc2ccc(C#N)cc2)nc2ccccc12 [Compound 41]	0.0022 µM	> 93.1 µM			
Cc1cccc(C)c1Oc1nc(Nc2ccc(C#N)cc2)nc2ccccc12 [Compound 43]	0.046 µM	> 640 µM			
Cc1c(Oc2ccnc(Nc3ccc(C#N)cc3)n2)ccc2ccccc12 [Compound 10]			0.00346 µM	114 µM	EC50 [1]: 11 µM
Cc1cc(Br)c(Oc2nc(Nc3ccc(C#N)cc3)nc3ccccc23)c(Br)c1 [Compound 35]	0.015 µM	23.4 µM			
N#Cc1ccc(Nc2nccc(Oc3cc4ccc(C#N)cc4cc3Br)n2)cc1 [Compound 16]			0.0011 µM	55.4 µM	EC50 [1]: > 56.5 µM
Cc1cc2ccccc2cc1Oc1ccnc(Nc2ccc(C#N)cc2)n1 [Compound 11]			0.0023 µM	71.2 µM	EC50 [1]: > 70.9 µM
N#Cc1ccc(Nc2nc(Oc3c(Br)cc(Br)cc3Br)c3ccccc3n2)cc1 [Compound 34]	0.023 µM	71 µM			
Cc1cn([C@H]2C[C@H](N=[N+]=[N-])[C@@H](CO)O2)c(=O)[nH]c1=O [DDN/AZT, reference compound]	0.00517 µM	> 93.5 µM			
N#Cc1ccc(Nc2nc(S(=O)(=O)c3ccccc3)c3ccccc3n2)cc1 [Compound 51]	0.589 µM	> 215 µM			
COc1nc(Nc2ccc(C#N)cc2)nc(Oc2cccc3cccnc23)c1C [Compound 8]			0.0178 µM	31.8 µM	
COc1ccccc1Oc1nc(Nc2ccc(C#N)cc2)nc2ccccc12 [Compound 29]					SI (Selectivity index, the ratio of CC50/IC50) (HIV-1 IIIB strain; [5]): >6186; EC50 (HIV-1 IIIB strain; [6]): 0.03 µM; CC50 at 7 days ([2]; uninfected MT-4 cells, Table 3): > 186 µM

Compound	EC50 (HIV-1 IIIB strain; [3])	CC50 (MT-4 cells; Table 3)	EC50 (HIV-1 IIIB strain; [4])	CC50 (MT-4 cells; Table 1)	other results
COc1cc(C#N)cc(OC(C)C)c1Oc1nc(Nc2ccc(C#N)cc2)nc2ccccc12 [Compound 50]	0.0067 µM	> 65.8 µM			
Cc1cc2ccccc2c(C)c1Oc1ccnc(Nc2ccc(C#N)cc2)n1 [Compound 12]			0.0041 µM	313 µM	EC50 [1]: 1.17 µM
N#Cc1ccc(Nc2nc(Oc3ccc(Cl)cc3Cl)c3ccccc3n2)cc1 [Compound 37]	0.028 µM	114 µM			
Cc1ccc(Oc2nc(Nc3ccc(C#N)cc3)nc3ccccc23)cc1 [Compound 31]					SI (Selectivity index, the ratio of CC50/IC50) (HIV-1 IIIB strain; [5]): 8091; EC50 (HIV-1 IIIB strain; [6]): 0.042 µM; CC50 at 7 days ([2]; uninfected MT-4 cells, Table 3): 340 µM
CNc1nc(Nc2ccc(C#N)cc2)nc(Oc2ccc3cc(C#N)ccc3c2)c1C(C)C [Compound 19]			0.0076 µM	265 µM	EC50 [1]: 4.58 µM
N#Cc1ccc(Nc2nc(Oc3ccc(F)cc3)c3ccccc3n2)cc1 [Compound 38]	0.156 µM	310 µM			
Cc1c(Cl)nc(Nc2ccc(C#N)cc2)nc1Oc1cccc2cccnc12 [Compound 6]			0.0257 µM	44.7 µM	
Cc1cnc(Nc2ccc(C#N)cc2)nc1Oc1cccc2cccnc12 [Compound 5]			0.0058 µM	19.9 µM	
CC(C)Nc1cccnc1N1CCN(C(=O)c2cc3cc(NS(C)(=O)=O)ccc3[nH]2)CC1 [DLV, Delavirdine, reference compound]					SI (Selectivity index, the ratio of CC50/IC50) (HIV-1 IIIB strain; HIV-1 IIIB, MT-4 cells, Table 1): 12; EC50 (HIV-1 IIIB strain; [7]): 0.072 µM; EC50 (HIV-1 IIIB strain; [8]): 0.072 µM; SI (Selectivity index, the ratio of CC50/IC50) (HIV-1 IIIB strain; WT(IIIB), Table 2): 12; CC50 at 7 days ([2]; uninfected MT-4 cells, Table 1): 0.86 µM
CCc1c(NC)nc(Nc2ccc(C#N)cc2)nc1Oc1ccc2cc(C#N)ccc2c1Br [Compound 18]			0.0062 µM	304 µM	EC50 [1]: > 59.5 µM
Cc1ccnc2c1NC(=O)c1cccnc1N2C1CC1 [NVP, nevirapine, reference compound]					EC50 (HIV-1 IIIB strain; [7]): 0.0751 µM; EC50 (HIV-1 IIIB strain; [8]): 0.0751 µM; CC50 at 7 days ([2]; Table 1): 5.41 µM; CC50 at 7 days ([2]; Table 3): > 15 µM
CCOc1cc(C#N)cc(Cl)c1Oc1nc(Nc2ccc(C#N)cc2)nc2ccccc12 [Compound 49]	0.0059 µM	> 594 µM			
Cc1cc(C#N)ccc1Oc1nc(Nc2ccc(C#N)cc2)nc2ccccc12 [Compound 33]	0.028 µM	> 333 µM			
N#Cc1ccc(Nc2nc(Oc3ccccc3Cl)c3ccccc3n2)cc1 [Compound 39]	0.057 µM	343 µM			
N#Cc1ccc(Nc2nc(Oc3c(Cl)cc(Cl)cc3Cl)c3ccccc3n2)cc1 [Compound 42]	0.0035 µM	244 µM			
COc1cc(C#N)cc(Cl)c1Oc1nc(Nc2ccc(C#N)cc2)nc2ccccc12 [Compound 48]	0.0056 µM	> 173 µM			
CNc1nc(Nc2ccc(C#N)cc2)nc(Oc2cccc3cccnc23)c1C [Compound 7]			0.0158 µM	36.5 µM	
N#Cc1ccc(Nc2nc(Oc3ccc(Cl)cc3)c3ccccc3n2)cc1 [Compound 40]	0.167 µM	> 396 µM			
N#Cc1ccc(Nc2nc(Oc3ccccc3)c3ccccc3n2)cc1 [Compound 30]					SI (Selectivity index, the ratio of CC50/IC50) (HIV-1 IIIB strain; [5]): >411; EC50 (HIV-1 IIIB strain; [6]): 0.887 µM; CC50 at 7 days ([2]; uninfected MT-4 cells, Table 3): > 365 µM
COc1ccc(Oc2nc(Nc3ccc(C#N)cc3)nc3ccccc23)cc1 [Compound 28]					SI (Selectivity index, the ratio of CC50/IC50) (HIV-1 IIIB strain; [5]): >1810; EC50 (HIV-1 IIIB strain; [6]): 0.187 µM; CC50 at 7 days ([2]; uninfected MT-4 cells, Table 3): > 3400 µM
Cc1cc(Br)cc(Br)c1Oc1nc(Nc2ccc(C#N)cc2)nc2ccccc12 [Compound 32]					SI (Selectivity index, the ratio of CC50/IC50) (HIV-1 IIIB strain; [5]): 8917; EC50 (HIV-1 IIIB strain; [6]): 0.0176 µM; CC50 at 7 days ([2]; uninfected MT-4 cells, Table 3): 157 µM
N#Cc1ccc(Nc2nc(Sc3ccccc3)c3ccccc3n2)cc1 [Compound 44]	0.752 µM	494 µM			
Cc1ccccc1Oc1nc(Nc2ccc(C#N)cc2)nc2ccccc12 [Compound 25]					SI (Selectivity index, the ratio of CC50/IC50) (HIV-1 IIIB strain; [5]): 1148; EC50 (HIV-1 IIIB strain; [6]): 0.0937 µM; CC50 at 7 days ([2]; uninfected MT-4 cells, Table 3): 108 µM
